Source: paper PMC4032197 (Journal of Medicinal Chemistry, 2014)

Columns and labels:
[1] = target: T1, human EP2 receptors (Homo sapiens, UniProt P43116); settings: for EP2 potency (in words): tested at 1 μM
[2] = target: T1, human EP2 receptors; settings: earlier study; cited from earlier work
[3] = mouse

T1 sequence (P43116 whole entry): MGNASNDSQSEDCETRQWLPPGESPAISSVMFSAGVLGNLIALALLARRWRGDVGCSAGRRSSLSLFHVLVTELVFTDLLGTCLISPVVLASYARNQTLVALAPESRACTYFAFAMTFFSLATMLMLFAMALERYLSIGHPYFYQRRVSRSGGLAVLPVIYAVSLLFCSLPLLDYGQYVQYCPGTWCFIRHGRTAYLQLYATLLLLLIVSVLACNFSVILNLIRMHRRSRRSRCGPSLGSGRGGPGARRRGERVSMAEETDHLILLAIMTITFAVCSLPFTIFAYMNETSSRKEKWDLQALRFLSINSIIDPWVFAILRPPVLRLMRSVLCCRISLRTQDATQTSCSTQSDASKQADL

| Compound | fold less EP2 potency in comparison to 5a [1] | EP2 potency (in words) [1] | also measured |
| --- | --- | --- | --- |
| Cc1cc2ccccc2n1CCNC(=O)C1CC1c1ccc(F)cc1 (centres unmarked) [6i] | 100 fold |  |  |
| COc1cc(/C=C/C(=O)NCc2c(C)[nH]c3ccccc23)cc(OC)c1OC [5s] |  | complete loss of potency |  |
| COc1cc(/C=C/C(=O)NCCN2CCCCC2C)cc(OC)c1OC (centres unmarked) [6j] |  |  | EP2 activity (in words) [2]: complete loss of activity |
| Cc1cc(/C=C/C(=O)NCCn2c(C(F)(F)F)cc3ccccc32)cc(C)c1F [5f] |  |  | fold less EP2 potency in comparison to 5d [1]: 16 fold |
| Cc1cc2ccccc2n1CCNC(=O)/C=C/c1ccc(OCCO)c(OCCO)c1 [6a, (E)-3-(3,4-Bis(2-hydroxyethoxy)phenyl)-N-(2-(2-methyl-1H-indol-1-yl)ethyl)acrylamide] |  |  | in vivo plasma half-life [3]: more than an hour; brain penetration property ([3]; in vivo): poor |
| COc1cc(/C=C/C(=O)NCCc2n[nH]c3ccccc23)cc(OC)c1OC [6t] |  | completely lost EP2 potency |  |
| COc1cc(C(N)CC(=O)NCCn2c(C)cc3ccccc32)cc(OC)c1OC (centres unmarked) [5w] | 180 fold |  |  |
| COc1ccc(/C=C/C(=O)NCCn2c(C(F)(F)F)cc3ccccc32)cc1 [5e] |  |  | fold less EP2 potency in comparison to 5d [1]: 16 fold |
| COc1cc(/C=C/C(=O)OCCn2c(C)cc3ccccc32)cc(OC)c1OC [6h] | about 140 fold |  |  |
| COC(=O)[C@H](Cc1c(C)[nH]c2ccccc12)NC(=O)/C=C/c1cc(OC)c(OC)c(OC)c1 [5y] |  | inactive |  |
| COc1cc(/C=C/C(=O)NCCc2c(C)oc3ccccc23)cc(OC)c1OC [5k] | 138 fold |  |  |
| COc1ccc(CCNC(=O)CCn2c(C)cc3ccccc32)cc1OC [5u] |  | killed EP2 potency |  |
| COc1ccc(/C=C/C(=O)NCCn2c(C)cc3ccccc32)cc1 [6q] | 7 fold |  |  |
